The nature of series [1]: Acid resistance (half-life period). Type of series: physicochemical. The following applies: acid ph 1.3, Temperature 37° C, pH 1.3, read-out: τ1/2 half-life period (acid resistance). Here is the method:
All compounds of this group were prepared in the form of sodium salts. Bactericidal activity, degree of hydrolysis with staphylococc penicillinase and acid resistance of the penicillins were determined.

A short description of a further series: in vivo. The following applies: mouse, iv.

Like-named read-outs stand apart in the source and are kept apart here.

For `CC1(C)SC2C(NC(=O)C3(c4ccccc4)CC3)C(=O)N2C1C(=O)O` (centres unmarked) [Compound I (Table 2)], in series [1] (Table 2, cyclopropyl series), the half-life is 9.9 min. This compound returned an MTD in the series “in vivo” of 1500 mg/kg.

Consider `CCCCOc1ccccc1C1(C(=O)N[C@@H]2C(=O)N3[C@@H]2SC(C)(C)[C@@H]3C(=O)O)CCC1` [Compound VI (Table 3)], for which the half-life in series [1] (Table 3, cyclobutyl series) was 24.9 min. Further, in “in vivo”, the MTD came out at 1000 mg/kg.

On to `CCCOc1ccccc1C1(C(=O)NC2C(=O)N3C2SC(C)(C)C3C(=O)O)CC1` (centres unmarked) [Compound IV (Table 2)], for which the half-life in series [1] (Table 2, cyclopropyl series) worked out at 5.8 min. This compound came in with an MTD in “in vivo” of 500 mg/kg.

As for `CCCCOc1ccc(C2(C(=O)N[C@@H]3C(=O)N4[C@@H]3SC(C)(C)[C@@H]4C(=O)O)CC2)cc1` [Compound XVI (Table 2)], the half-life in series [1] (Table 2, cyclopropyl series) came out at 6.1 min. Also, in “in vivo”, the MTD was found to be 250 mg/kg.

With `CCCCOc1ccccc1C1(C(=O)NC2C(=O)N3C2SC(C)(C)C3C(=O)O)CC1` (centres unmarked) [Compound VI (Table 2)], the half-life in series [1] (Table 2, cyclopropyl series) was 5.2 min. This compound also displayed an MTD in “in vivo” of 500 mg/kg.

Regarding `COc1ccccc1C1(C(=O)N[C@@H]2C(=O)N3[C@@H]2SC(C)(C)[C@@H]3C(=O)O)CCC1` [Compound II (Table 3)], the half-life in series [1] (Table 3, cyclobutyl series) was determined as 7.7 min. The same compound had an MTD in the series “in vivo” of 500 mg/kg.

As to `CCOc1ccc(C2(C(=O)N[C@@H]3C(=O)N4[C@@H]3SC(C)(C)[C@@H]4C(=O)O)CC2)cc1` [Compound XIII (Table 2)], in series [1] (Table 2, cyclopropyl series), the half-life turned out to be 6.7 min. Further, the MTD in the series “in vivo” is 2750 mg/kg.

Turning to `COc1ccc(C2(C(=O)N[C@@H]3C(=O)N4[C@@H]3SC(C)(C)[C@@H]4C(=O)O)CCC2)cc1` [Compound XII (Table 3)], the half-life in series [1] (Table 3, cyclobutyl series) is 10.7 min. The same compound returned an MTD in “in vivo” of 1500 mg/kg.

Turning to `CC(C)Oc1cccc(C2(C(=O)N[C@@H]3C(=O)N4[C@@H]3SC(C)(C)[C@@H]4C(=O)O)CC2)c1` [Compound X (Table 2)], the half-life in series [1] (Table 2, cyclopropyl series) was 10.5 min. The MTD in “in vivo” was found to be 500 mg/kg.

In the case of `CC1(C)S[C@@H]2[C@H](NC(=O)C3(c4ccccc4)CCC3)C(=O)N2[C@H]1C(=O)O` [Compound I (Table 3)], the half-life in series [1] (Table 3, cyclobutyl series) was determined as 86.6 min. In the series “in vivo”, this compound showed an MTD of 1000 mg/kg.

As to `COc1ccc(C2(C(=O)N[C@@H]3C(=O)N4[C@@H]3SC(C)(C)[C@@H]4C(=O)O)CC2)cc1` [Compound XII (Table 2)], the half-life in series [1] (Table 2, cyclopropyl series) was 7.3 min. Also, the MTD in “in vivo” came out at 2000 mg/kg.

`CCCOc1cccc(C2(C(=O)N[C@@H]3C(=O)N4[C@@H]3SC(C)(C)[C@@H]4C(=O)O)CC2)c1` [Compound IX (Table 2)]: the half-life in series [1] (Table 2, cyclopropyl series) worked out at 14.5 min. Further, the MTD in “in vivo” was 1500 mg/kg.

In the case of `CCCOc1ccccc1C1(C(=O)N[C@@H]2C(=O)N3[C@@H]2SC(C)(C)[C@@H]3C(=O)O)CCC1` [Compound IV (Table 3)], the half-life in series [1] (Table 3, cyclobutyl series) came to 23 min. The same compound gave an MTD in the series “in vivo” of 500 mg/kg.

For the compound `CCOc1ccccc1C1(C(=O)N[C@@H]2C(=O)N3[C@@H]2SC(C)(C)[C@@H]3C(=O)O)CCC1` [Compound III (Table 3)], in series [1] (Table 3, cyclobutyl series), the half-life came to 19.1 min. For the same compound, the MTD in the series “in vivo” turned out to be 250 mg/kg.

For the compound `CCOc1ccc(C2(C(=O)N[C@@H]3C(=O)N4[C@@H]3SC(C)(C)[C@@H]4C(=O)O)CCC2)cc1` [Compound XIII (Table 3)], the half-life in series [1] (Table 3, cyclobutyl series) is 190 min. In “in vivo”, the MTD came to 1000 mg/kg.

For the compound `COc1ccccc1C1(C(=O)NC2C(=O)N3C2SC(C)(C)C3C(=O)O)CC1` (centres unmarked) [Compound II (Table 2)], the half-life in series [1] (Table 2, cyclopropyl series) amounted to 5 min. Also, the MTD in the series “in vivo” was found to be 2000 mg/kg.

On to `CCCOc1cccc(C2(C(=O)N[C@@H]3C(=O)N4[C@@H]3SC(C)(C)[C@@H]4C(=O)O)CCC2)c1` [Compound IX (Table 3)], for which the half-life in series [1] (Table 3, cyclobutyl series) came out at 20.1 min. In “in vivo”, this compound came in with an MTD of 250 mg/kg.

On to `CC(C)Oc1ccccc1C1(C(=O)NC2C(=O)N3C2SC(C)(C)C3C(=O)O)CC1` (centres unmarked) [Compound V (Table 2)], for which the half-life in series [1] (Table 2, cyclopropyl series) was determined as 6 min. This compound had an MTD in the series “in vivo” of 500 mg/kg.

With `CCOc1ccccc1C1(C(=O)NC2C(=O)N3C2SC(C)(C)C3C(=O)O)CC1` (centres unmarked) [Compound III (Table 2)], the half-life in series [1] (Table 2, cyclopropyl series) is 6 min. In the series “in vivo”, this compound displayed an MTD of 500 mg/kg.
